Reference: patent US8962631B2 (Vertex Pharmaceuticals Incorporated, priority 2010, dated 2015)

Molecular target: T1, full-length ATR (Homo sapiens, UniProt Q13535)
T1 construct: Assays were carried out at 25° C. in the presence of 5 nM full-length ATR
Assay: ATR Inhibition Assay (radioactive-phosphate incorporation)
Format: biochemical
Settings: for Ki: Ki(app), 10 μM ATP, 800 μM target peptide, 5 nM full-length ATR, 25° C.; for inhibition at 15 µM: at 15 uM compound
Procedure: Compounds were screened for their ability to inhibit ATR kinase using a radioactive-phosphate incorporation assay. Assays were carried out in a mixture of 50 mM Tris/HCl (pH 7.5), 10 mM MgCl2 and 1 mM DTT. Final substrate concentrations were 10 μM [γ-33P]ATP (3 mCi 33P ATP/mmol ATP, Perkin Elmer) and 800 μM target peptide ([…] (SEQ. ID NO: 1)).
Assays were carried out at 25° C. in the presence of 5 nM full-length ATR. An assay stock buffer solution was prepared containing all of the reagents listed above, with the exception of ATP and the test compound of interest. 13.5 μL of the stock solution was placed in a 96 well plate followed by addition of 2 μL of DMSO stock containing serial dilutions of the test compound (typically starting from a final concentration of 15 μM with 3-fold serial dilutions) in duplicate (final DMSO concentration 7%). The plate was pre-incubated for 10 minutes at 25° C. and the reaction initiated by addition of 15 μL [γ-33P]ATP (final concentration 10 μM).
The reaction was stopped after 24 hours by the addition of 30 μL 0.1M phosphoric acid containing 2 mM ATP. A multiscreen phosphocellulose filter 96-well plate (Millipore, Cat no. MAPHN0B50) was pretreated with 100 μL 0.2M phosphoric acid prior to the addition of 45 μL of the stopped assay mixture. The plate was washed with […] 0.2M phosphoric acid. After drying, 100 μL Optiphase ‘SuperMix’ liquid scintillation cocktail (Perkin Elmer) was added to the well prior to scintillation counting (1450 Microbeta Liquid Scintillation Counter, Wallac).
After removing mean background values for all of the data points, Ki(app) data were calculated from non-linear regression analysis of the initial rate data using the Prism software package (GraphPad Prism version 3.0cx for Macintosh, GraphPad Software, San Diego Calif., USA).

[1] = read-out: percent inhibition against ATR

T1 sequence (Q13535 whole entry): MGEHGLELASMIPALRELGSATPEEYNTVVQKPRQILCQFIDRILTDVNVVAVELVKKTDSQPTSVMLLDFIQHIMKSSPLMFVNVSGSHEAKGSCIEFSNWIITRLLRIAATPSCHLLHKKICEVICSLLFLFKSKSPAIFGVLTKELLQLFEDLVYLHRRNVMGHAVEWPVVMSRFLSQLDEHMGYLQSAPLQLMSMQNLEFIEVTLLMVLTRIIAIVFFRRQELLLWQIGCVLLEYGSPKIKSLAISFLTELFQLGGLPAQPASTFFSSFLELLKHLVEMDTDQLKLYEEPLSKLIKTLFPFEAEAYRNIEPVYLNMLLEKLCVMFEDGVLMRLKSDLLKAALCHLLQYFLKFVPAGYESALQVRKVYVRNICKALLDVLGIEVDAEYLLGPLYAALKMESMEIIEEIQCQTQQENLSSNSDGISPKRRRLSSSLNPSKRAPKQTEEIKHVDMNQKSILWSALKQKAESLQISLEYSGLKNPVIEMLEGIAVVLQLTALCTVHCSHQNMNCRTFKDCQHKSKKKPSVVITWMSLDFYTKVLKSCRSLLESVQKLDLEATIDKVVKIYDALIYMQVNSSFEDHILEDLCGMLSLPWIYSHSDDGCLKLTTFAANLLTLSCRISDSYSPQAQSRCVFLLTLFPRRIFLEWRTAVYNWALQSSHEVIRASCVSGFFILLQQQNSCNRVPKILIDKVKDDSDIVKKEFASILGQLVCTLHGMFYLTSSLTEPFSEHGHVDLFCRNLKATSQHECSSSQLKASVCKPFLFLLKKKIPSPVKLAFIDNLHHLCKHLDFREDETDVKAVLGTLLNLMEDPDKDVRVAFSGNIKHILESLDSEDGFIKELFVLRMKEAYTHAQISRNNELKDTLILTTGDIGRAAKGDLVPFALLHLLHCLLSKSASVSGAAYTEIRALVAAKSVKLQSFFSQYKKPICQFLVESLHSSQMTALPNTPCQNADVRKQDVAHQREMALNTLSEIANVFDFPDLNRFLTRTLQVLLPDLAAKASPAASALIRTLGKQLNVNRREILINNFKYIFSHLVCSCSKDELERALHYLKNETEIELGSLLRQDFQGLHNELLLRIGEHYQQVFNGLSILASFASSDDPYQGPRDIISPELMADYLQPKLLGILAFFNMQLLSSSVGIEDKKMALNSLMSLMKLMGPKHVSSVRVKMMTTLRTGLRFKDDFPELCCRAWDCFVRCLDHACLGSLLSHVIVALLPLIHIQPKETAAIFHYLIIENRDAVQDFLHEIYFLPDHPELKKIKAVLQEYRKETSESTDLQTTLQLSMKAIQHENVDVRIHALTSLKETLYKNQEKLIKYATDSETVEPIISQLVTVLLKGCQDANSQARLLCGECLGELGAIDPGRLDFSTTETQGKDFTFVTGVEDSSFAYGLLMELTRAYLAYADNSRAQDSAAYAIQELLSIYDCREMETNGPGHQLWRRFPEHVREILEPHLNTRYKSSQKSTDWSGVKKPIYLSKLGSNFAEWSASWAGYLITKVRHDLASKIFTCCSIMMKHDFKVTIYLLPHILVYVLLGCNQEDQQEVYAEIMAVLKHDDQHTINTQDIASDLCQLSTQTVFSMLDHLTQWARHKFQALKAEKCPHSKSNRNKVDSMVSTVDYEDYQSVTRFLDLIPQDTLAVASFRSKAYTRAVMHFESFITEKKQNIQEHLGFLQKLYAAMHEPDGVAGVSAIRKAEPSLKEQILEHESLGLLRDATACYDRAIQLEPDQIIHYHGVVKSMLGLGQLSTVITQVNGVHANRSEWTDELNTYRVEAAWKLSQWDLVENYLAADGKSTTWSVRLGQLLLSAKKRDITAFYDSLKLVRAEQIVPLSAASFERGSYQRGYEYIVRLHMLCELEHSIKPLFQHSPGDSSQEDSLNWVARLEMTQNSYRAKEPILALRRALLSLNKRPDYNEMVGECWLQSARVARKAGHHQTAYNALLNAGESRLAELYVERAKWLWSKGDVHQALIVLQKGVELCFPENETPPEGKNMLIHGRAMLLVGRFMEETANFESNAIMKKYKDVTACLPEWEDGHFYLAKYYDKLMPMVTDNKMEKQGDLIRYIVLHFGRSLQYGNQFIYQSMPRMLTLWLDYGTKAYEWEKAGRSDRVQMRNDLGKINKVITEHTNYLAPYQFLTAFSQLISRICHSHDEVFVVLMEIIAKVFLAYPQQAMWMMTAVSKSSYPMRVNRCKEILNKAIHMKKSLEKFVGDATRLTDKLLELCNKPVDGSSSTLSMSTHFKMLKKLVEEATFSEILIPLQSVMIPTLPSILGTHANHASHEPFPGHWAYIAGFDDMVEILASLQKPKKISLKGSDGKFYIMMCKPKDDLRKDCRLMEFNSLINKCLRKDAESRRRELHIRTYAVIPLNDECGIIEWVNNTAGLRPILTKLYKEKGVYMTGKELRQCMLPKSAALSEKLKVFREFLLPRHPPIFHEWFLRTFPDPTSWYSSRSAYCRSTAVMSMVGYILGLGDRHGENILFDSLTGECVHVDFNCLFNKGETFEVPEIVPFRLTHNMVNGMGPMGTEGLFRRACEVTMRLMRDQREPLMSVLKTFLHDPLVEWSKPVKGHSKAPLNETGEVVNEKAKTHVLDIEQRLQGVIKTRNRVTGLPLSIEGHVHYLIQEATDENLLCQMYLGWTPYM

Row | Ki [nM] | Structure (SMILES) | also measured
1 | 1000 to 8000 | Nc1ncc(Sc2ccccc2)nc1C(=O)Nc1ccccc1 [II-37, 3-Amino-N-phenyl-6-phenylsulfanyl-pyrazine-2-carboxamide] | –
2 | – | Nc1ncc(Sc2ccccc2)nc1-c1nc2ccccc2[nH]1 [II-38, 3-(1H-Benzimidazol-2-yl)-5-phenylsulfanyl-pyrazin-2-amine] | inhibition at 15 µM [1]: 15 to 24%
3 | 1000 to 8000 | Nc1ncc(Sc2cccc(Cl)c2)nc1-c1nc2ccccc2[nH]1 [II-39, 3-(1H-Benzimidazol-2-yl)-5-(3-chlorophenyl)sulfanyl-pyrazin-2-amine] | –
4 | – | Nc1ncc(Sc2cccc(F)c2)nc1-c1nc2ccccc2[nH]1 [II-40, 3-(1H-Benzimidazol-2-yl)-5-(3-fluorophenyl)sulfanyl-pyrazin-2-amine] | inhibition at 30 µM (at 30 uM compound, read-out: percent inhibition against ATR): 40 to 50%
5 | – | Cc1ccc2nc(-c3nc(C(=O)Nc4ccccc4)cnc3N)[nH]c2c1 [II-41, 5-Amino-6-(6-methyl-1H-benzimidazol-2-yl)-N-phenyl-pyrazine-2-carboxamide] | inhibition at 15 µM [1]: 25 to 45%
6 | 500 to 1000 | Cc1ccc2nc(-c3nc(C(=O)Nc4cccnc4)cnc3N)[nH]c2c1 [II-42, 5-Amino-6-(6-methyl-1H-benzimidazol-2-yl)-N-(3-pyridyl)pyrazine-2-carboxamide] | –
7 | ≤ 500 | Cc1ccc2nc(-c3nc(C(=O)NCc4ccccc4)cnc3N)[nH]c2c1 [II-43, 5-Amino-N-benzyl-6-(6-methyl-1H-benzimidazol-2-yl)pyrazine-2-carboxamide] | –
8 | 500 to 1000 | Cc1ccc2nc(-c3nc(C(=O)N(C)c4ccccc4)cnc3N)[nH]c2c1 [II-44, 5-Amino-N-methyl-6-(6-methyl-1H-benzimidazol-2-yl)-N-phenyl-pyrazine-2-carboxamide] | –
9 | 1000 to 8000 | Cc1ccc2nc(-c3nc(C(=O)Nc4ccc(N5CCN(C)CC5)nc4)cnc3N)[nH]c2c1 [II-45, 5-Amino-6-(6-methyl-1H-benzimidazol-2-yl)-N-[6-(4-methylpiperazin-1-yl)-3-pyridyl]pyrazine-2-carboxamide] | –
10 | 1000 to 8000 | CCN(CC)C(=O)c1cnc(N)c(-c2nc3ccc(C)cc3[nH]2)n1 [II-46, 5-Amino-N,N-diethyl-6-(6-methyl-1H-benzimidazol-2-yl)pyrazine-2-carboxamide] | –
11 | ≤ 500 | COC(=O)c1cnc(N)c(-c2nc3ccc(C)cc3[nH]2)n1 [II-47, Methyl 5-amino-6-(6-methyl-1H-benzo[d]imidazol-2-yl)pyrazine-2-carboxylate] | –
12 | ≤ 500 | Cc1ccc2nc(-c3nc(C(=O)NCC#N)cnc3N)[nH]c2c1 [II-48, 5-Amino-N-(cyanomethyl)-6-(6-methyl-1H-benzimidazol-2-yl)pyrazine-2-carboxamide] | –
13 | ≤ 500 | Cc1ccc2nc(-c3nc(C(=O)NCC4CCCC4)cnc3N)[nH]c2c1 [II-49, 5-Amino-N-(cyclopentylmethyl)-6-(6-methyl-1H-benzimidazol-2-yl)pyrazine-2-carboxamide] | –
14 | 1000 to 8000 | Cc1ccc2nc(-c3nc(C(=O)NCC(N)=O)cnc3N)[nH]c2c1 [II-50, 5-Amino-N-(2-amino-2-oxo-ethyl)-6-(6-methyl-1H-benzimidazol-2-yl)pyrazine-2-carboxamide] | –
15 | 500 to 1000 | Cc1ccc2nc(-c3nc(C(=O)NCCN4CCCC4)cnc3N)[nH]c2c1 [II-51, 5-Amino-6-(6-methyl-1H-benzimidazol-2-yl)-N-(2-pyrrolidin-1-ylethyl)pyrazine-2-carboxamide] | –
16 | ≤ 500 | Cc1ccc2nc(-c3nc(C(=O)NCC4CCCO4)cnc3N)[nH]c2c1 (centres unmarked) [II-52, 5-Amino-6-(6-methyl-1H-benzimidazol-2-yl)-N-(tetrahydrofuran-2-ylmethyl)pyrazine-2-carboxamide] | –
17 | 1000 to 8000 | Cc1ccc2nc(-c3nc(C(=O)N4CCOCC4)cnc3N)[nH]c2c1 [II-53, [5-Amino-6-(6-methyl-1H-benzimidazol-2-yl)pyrazin-2-yl]-morpholino-methanone] | –
18 | ≤ 500 | C#CCNC(=O)c1cnc(N)c(-c2nc3ccc(C)cc3[nH]2)n1 [II-54, 5-Amino-6-(6-methyl-1H-benzimidazol-2-yl)-N-prop-2-ynyl-pyrazine-2-carboxamide] | –
19 | ≤ 500 | COC(=O)CNC(=O)c1cnc(N)c(-c2nc3ccc(C)cc3[nH]2)n1 [II-55, Methyl 2-[[5-amino-6-(6-methyl-1H-benzimidazol-2-yl)pyrazine-2-carbonyl]amino]acetate] | –

Row | Ki [nM] | Structure (SMILES) | also measured
20 | ≤ 500 | Cc1ccc2nc(-c3nc(C(=O)NCC4CC4)cnc3N)[nH]c2c1 [II-56, 5-Amino-N-(cyclopropylmethyl)-6-(6-methyl-1H-benzimidazol-2-yl)pyrazine-2-carboxamide] | –
21 | 500 to 1000 | Cc1ccc2nc(-c3nc(C(=O)N(C)Cc4ccccc4)cnc3N)[nH]c2c1 [II-58, 5-Amino-N-benzyl-N-methyl-6-(6-methyl-1H-benzimidazol-2-yl)pyrazine-2-carboxamide] | –
22 | 500 to 1000 | Cc1ccc2nc(-c3nc(C(=O)N[C@@H](C)c4ccccc4)cnc3N)[nH]c2c1 [II-59, 5-Amino-6-(6-methyl-1H-benzimidazol-2-yl)-N-[(1S)-1-phenylethyl]pyrazine-2-carboxamide] | –
23 | ≤ 500 | Cc1ccc2nc(-c3nc(C(=O)N4CCC4)cnc3N)[nH]c2c1 [II-60, [5-Amino-6-(6-methyl-1H-benzimidazol-2-yl)pyrazin-2-yl]-(azetidin-1-yl)methanone] | –
24 | 1000 to 8000 | Cc1ccc2nc(-c3nc(C(=O)NCC(=O)N(C)C)cnc3N)[nH]c2c1 [II-61, 5-Amino-N-[2-(dimethylamino)-2-oxo-ethyl]-6-(6-methyl-1H-benzimidazol-2-yl)pyrazine-2-carboxamide] | –
25 | 1000 to 8000 | Cc1ccc2nc(-c3nc(C(=O)NCC(=O)C(C)(C)C)cnc3N)[nH]c2c1 [II-62, 5-Amino-N-(3,3-dimethyl-2-oxo-butyl)-6-(6-methyl-1H-benzimidazol-2-yl)pyrazine-2-carboxamide] | –
26 | – | Cc1ccc2nc(-c3nc(C(=O)NCC4CCCCC4)cnc3N)[nH]c2c1 [II-63, 5-Amino-N-(cyclohexylmethyl)-6-(6-methyl-1H-benzimidazol-2-yl)pyrazine-2-carboxamide] | inhibition at 15 µM [1]: 25 to 45%
27 | ≤ 500 | Cc1ccc2nc(-c3nc(C(=O)NCc4ccc(F)cc4)cnc3N)[nH]c2c1 [II-64, 5-Amino-N-[(4-fluorophenyl)methyl]-6-(6-methyl-1H-benzimidazol-2-yl)pyrazine-2-carboxamide] | –
28 | ≤ 500 | COc1ccc(CNC(=O)c2cnc(N)c(-c3nc4ccc(C)cc4[nH]3)n2)cc1 [II-65, 5-Amino-N-[(4-methoxyphenyl)methyl]-6-(6-methyl-1H-benzimidazol-2-yl)pyrazine-2-carboxamide] | –
29 | 1000 to 8000 | C=CCNC(=O)c1cnc(N)c(-c2nc3ccc(C)cc3[nH]2)n1 [II-66, N-Allyl-5-amino-6-(6-methyl-1H-benzimidazol-2-yl)pyrazine-2-carboxamide] | –
30 | 1000 to 8000 | Cc1ccc2nc(-c3nc(C(=O)NCC(C)O)cnc3N)[nH]c2c1 (centres unmarked) [II-67, 5-Amino-N-(2-hydroxypropyl)-6-(6-methyl-1H-benzimidazol-2-yl)pyrazine-2-carboxamide] | –
31 | 500 to 1000 | Cc1ccc2nc(-c3nc(C(=O)NCc4ccco4)cnc3N)[nH]c2c1 [II-68, 5-Amino-N-(2-furylmethyl)-6-(6-methyl-1H-benzimidazol-2-yl)pyrazine-2-carboxamide] | –
32 | 500 to 1000 | Cc1ccc2nc(-c3nc(C(=O)NCCc4ccccc4)cnc3N)[nH]c2c1 [II-69, 5-Amino-6-(6-methyl-1H-benzimidazol-2-yl)-N-phenethyl-pyrazine-2-carboxamide] | –
33 | 500 to 1000 | Cc1ccc2nc(-c3nc(C(=O)NCc4cccnc4)cnc3N)[nH]c2c1 [II-70, 5-Amino-6-(6-methyl-1H-benzimidazol-2-yl)-N-(3-pyridylmethyl)pyrazine-2-carboxamide] | –
34 | 1000 to 8000 | COCCNC(=O)c1cnc(N)c(-c2nc3ccc(C)cc3[nH]2)n1 [II-71, 5-Amino-N-(2-methoxyethyl)-6-(6-methyl-1H-benzimidazol-2-yl)pyrazine-2-carboxamide] | –
35 | – | Cc1ccc2nc(-c3nc(C(=O)NC4CCCC4)cnc3N)[nH]c2c1 [II-72, 5-Amino-N-cyclopentyl-6-(6-methyl-1H-benzimidazol-2-yl)pyrazine-2-carboxamide] | inhibition at 15 µM [1]: 15 to 24%
36 | 500 to 1000 | Cc1ccc2nc(-c3nc(C(=O)NCCC(F)(F)F)cnc3N)[nH]c2c1 [II-73, 5-Amino-6-(6-methyl-1H-benzimidazol-2-yl)-N-(3,3,3-trifluoropropyl)pyrazine-2-carboxamide] | –
37 | 1000 to 8000 | Cc1ccc2nc(-c3nc(C(=O)NC4CCC4)cnc3N)[nH]c2c1 [II-74, 5-Amino-N-cyclobutyl-6-(6-methyl-1H-benzimidazol-2-yl)pyrazine-2-carboxamide] | –
38 | ≤ 500 | N#CCNC(=O)c1cnc(N)c(-c2nc3ccccc3[nH]2)n1 [II-75, 5-Amino-6-(1H-benzimidazol-2-yl)-N-(cyanomethyl)pyrazine-2-carboxamide] | –
